# Test results published in patent publication US11142515B2, “Pyrazolyl-ureas as kinase inhibitors” (RESPIVERT LIMITED, priority 2014, dated 2021).
# pIC50: −log10 of the molar value.
# How the values were obtained:
# [1] = tested on: CXCL1 (KC) in BALF; experiment: Cigarette smoke model: CXCL1 (KC) in BALF; assay type: in vivo, A/J mice; details: mice; for CXCL1 in BALF / CXCL1 in BALF, % inhibition: tobacco smoke
# Method: A/J mice (males, 5 weeks old) were exposed to cigarette smoke (4% cigarette smoke, diluted with air) for 30 min/day for 11 days using a Tobacco Smoke Inhalation Experiment System for small animals (Model SIS-CS; Sibata Scientific Technology, Tokyo, Japan). Test substances were administered intra-nasally (35 μL of solution in 10% DMSO/PBS) once daily for 3 days after the final cigarette smoke exposure. At 12 h after the last […], each of the animals was anesthetized, the trachea cannulated and bronchoalveolar lavage fluid (BALF) was collected. The numbers of alveolar macrophages and neutrophils were determined by FACS analysis (EPICS® ALTRA II, Beckman Coulter, Inc., Fullerton, Calif., USA) using anti-mouse MOMA2 antibody (macrophage) or anti-mouse 7/4 antibody (neutrophil). BALF was centrifuged and the supernatant was collected. The level of keratinocyte chemoattractant (KC; CXCL1) in BALF was quantitated using a Quantikine® mouse KC ELISA kit (R&D systems, Inc., Minneapolis, Minn., USA).
# [2] = tested on: sputum macrophages from COPD patients; experiment: Cytokine production in LPS-treated sputum macrophages from COPD patients; assay type: cell-based, human
# Method: Patients with COPD inhaled a nebulised solution of 3% (w/v) hypertonic saline using an ultrasonic nebuliser (Devilbiss, Carthage, Mo.) with tidal breathing for 5 min. This procedure was repeated a maximum of three times until enough sputum was obtained. The sputum samples were homogenized and mixed vigorously using a vortex mixer in 0.02% v/v dithiothreitol (DTT) solution. The samples were re-suspended in PBS (40 mL) followed by centrifugation at 1500 rpm at 4° C. for 10 min to obtain sputum cell pellets. The pellets were washed with PBS (40 mL). The sputum cells were then re-suspended in 4 mL macrophage serum-free medium (macrophage-SFM, Life technologies, containing 20 U/mL penicillin, 0.02 mg/mL streptomycin and 5 μg/mL amphotericin B) and seeded on high bound 96-well plate, followed by incubation for 1 h at 37° C. and at 5% CO2 to allow the macrophages to attach to the bottom of the plate. The cells on the plate were washed with fresh macrophage-SFM (200 μL/well) to remove neutrophils and other contaminated cells. The adherent cells (mainly sputum macrophages) on the plate were used for further analysis. Sputum inductions were conducted in Quintiles Drug Research Unit at Guys Hospital and ethics approval and written informed consent was obtained by Quintiles.
# Where appropriate, 1 μL of a solution containing either the test compound or reference article at the stated concentrations (either 0.1 μg/mL, 0.01 μg/mL, or 0.001 μg/mL) or alternatively 1 μL of DMSO as the vehicle control was added to each well (200 μL in media) and the cells were incubated for 2 h. The cells were stimulated with LPS solution (50 μL, final concentration: 1 μg/mL) and incubated for 18 h at 37° C. and 5% CO2. The supernatant was then collected and kept at −80° C. Suitable luminex kits were used to measure the selected analytes. After thawing the supernatant, the magnetic antibody beads were multiplexed and incubated in a 96-well plate with standard, background solution or the appropriate volume of sample overnight with shaking at 4° C. After washing twice with 200 μL of wash buffer provided by the kit per well using a magnetic plate washer, the beads were incubated for 1 h at RT with the biotin conjugated antibody solution provided by the kit with shaking. Streptavidin solution was added for 30 min with shaking at RT. After washing with 200 μL wash buffer per well, the beads were resuspended in sheath fluid (150 μL) and analyzed immediately. The level of each analyte in the supernatant was calculated using Xcel Fit software with a 4 or 5-parameter equation using each standard curve. The inhibitions of each cytokine production were calculated at each concentration by comparison with vehicle control.
# [3] = tested on: PBMCs (mitosis); experiment: Cell mitosis assay in PHA-treated PBMCs; assay type: cell-based, human
# Method: Peripheral blood mononucleocytes (PBMCs) from healthy subjects were separated from whole blood (Quintiles, London, UK) using a density gradient (Histopaquee-1077, Sigma-Aldrich, Poole, UK). The PBMCs (3 million cells per sample) were subsequently treated with 2% PHA (Sigma-Aldrich, Poole, UK) for 48 h, followed by a 20 h exposure to varying concentrations of test compounds. At 2 h before collection, PBMCs were treated with demecolcine (0.1 μg/mL; Life Technologies, Paisley, UK,) to arrest cells in metaphase.
# [4] = tested on: neutrophil accumulation in BALF; experiment: LPS-induced neutrophil accumulation in mice; assay type: in vivo, Balb/c mice; details: mice; for Neutrophil numbers in BALF / Neutrophil numbers in BALF, % inhibition: 0.2 mg/mL, LPS
# Method: Non-fasted Balb/c mice were […] by the intra tracheal route with either vehicle, or the test substance at the indicated times (within the range 2-8 h) before stimulation of the inflammatory response by application of an LPS challenge. At T=0, mice were placed into an exposure chamber and exposed to LPS (7.0 mL, 0.5 mg/mL solution in PBS for 30 min). After a further 8 h the animals were anesthetized, their tracheas cannulated and BALF extracted by infusing and then withdrawing from their lungs 1.0 mL of PBS via the tracheal catheter. Total and differential white cell counts in the BALF samples were measured using a Neubaur haemocytometer. Cytospin smears of the BALF samples were prepared by centrifugation at 200 rpm for 5 min at RT and stained using a DiffQuik stain system (Dade Behring). Cells were counted using oil immersion microscopy. Data for neutrophil numbers in BAL are shown as mean±S.E.M. (standard error of the mean). The percentage inhibition of neutrophil accumulation was calculated for each treatment relative to vehicle treatment.
smiles,measurement,setting,value
"Cc1ccc(-n2nc(C(C)(C)C)cc2NC(=O)Nc2ccc(OCc3ccnc(Nc4cnccn4)c3)c3ccccc23)cc1 [Example 1, 1-(3-(tert-Butyl)-1-(p-tolyl)-1H-pyrazol-5-yl)-3-(4-((2-(pyrazin-2-ylamino)pyridin-4-yl)methoxy)naphthalen-1-yl)urea]",CXCL1 in BALF,[1]; 0.07 μg/mouse,14.47 pg/mL
same,"CXCL1 in BALF, % inhibition",[1]; 0.07 μg/mouse,14.6%
same,CXCL1 in BALF,[1]; 0.7 μg/mouse,12.49 pg/mL
same,"CXCL1 in BALF, % inhibition",[1]; 0.7 μg/mouse,34.9%
same,CXCL1 in BALF,[1]; 7 μg/mouse,9.03 pg/mL
same,"CXCL1 in BALF, % inhibition",[1]; 7 μg/mouse,70.3%
same,tobacco smoke induced CXCL1 (KC) production in BALF (in words),[1],inhibited
same,inhibition of pro-inflammatory cytokine production in sputum macrophage compared with fluticasone propionate,[2],higher efficacy
same,pIC50,"[2]; Homo sapiens, Macrophage, IL-6, sputum macrophages from COPD patients",7.55
same,inhibition at 0.1 µg/mL,"[2]; Homo sapiens, Macrophage, read-out: E-max (maximum inhibition), IL-6 production in LPS-treated sputum macrophages",60%
same,impact on cell division (mitosis) compared with Reference Compound,[3],markedly less activity
same,inhibition at 5 µg/mL,"[3]; Homo sapiens, PBMC, 5 μg/mL, PBMC, Table 5A, read-out: Mitosis Assay % Inhibition at 5 μg/mL in PBMC Cells",29.9%
same,Neutrophil numbers in BALF,[4]; pre-dose time 2 hr,492000 mL⁻¹
same,"Neutrophil numbers in BALF, % inhibition",[4]; pre-dose time 2 hr,67.8%
same,Neutrophil numbers in BALF,[4]; pre-dose time 8 hr,759000 mL⁻¹
same,"Neutrophil numbers in BALF, % inhibition",[4]; pre-dose time 8 hr,50.3%
same,LPS-induced neutrophil accumulation (in words),[4],inhibition
same,duration of action (time course experiment),[4],long duration of action
